Measured values published in ChEMBL document CHEMBL5724914, “Linking interpersonal differences in gut microbiota composition and drug biotransformation activity” (2024).

Legend:
[1] = (§1) The drug is tested on Z-025 corresponding to rabbit gut metagenome with ENA study accession number: PRJEB37062 and ENA sample accession number: ERS12561824 for biotransformation under anaerobic condition. The drug concentrations were measured over 9 timepoints collected between 0 and 24 hours of incubation by liquid-chromatography-coupled mass spectrometry (LC–MS); details: 2 µM
[2] = as §1, with “Z-021” for “Z-025”, “to” for “to rabbit gut”, “ERS12561820” for “ERS12561824”; details: 2 µM
[3] = as §1, with “Z-018” for “Z-025”, “pig” for “rabbit”, “ERS12561817” for “ERS12561824”; details: 2 µM
[4] = as §1, with “Z-017” for “Z-025”, “mouse” for “rabbit”, “ERS12561816” for “ERS12561824”; details: 2 µM
[5] = as §1, with “Z-013” for “Z-025”, “ERS12561813” for “ERS12561824”; details: 2 µM
[6] = as §1, with “Z-012” for “Z-025”, “to” for “to rabbit gut”, “ERS12561812” for “ERS12561824”; details: 2 µM
[7] = as §1, with “Z-008” for “Z-025”, “to” for “to rabbit gut”, “ERS12561808” for “ERS12561824”; details: 2 µM
[8] = as §1, with “Z-006” for “Z-025”, “mouse” for “rabbit”, “ERS12561806” for “ERS12561824”; details: 2 µM
[9] = as §1, with “WLS-098” for “Z-025”, “human” for “rabbit”, “ERS12561754” for “ERS12561824”; details: 2 µM
[10] = as §1, with “WLS-077” for “Z-025”, “human” for “rabbit”, “ERS12561750” for “ERS12561824”; details: 2 µM
[11] = as §1, with “WLS-007” for “Z-025”, “human” for “rabbit”, “ERS12561742” for “ERS12561824”; details: 2 µM
[12] = human gut metagenome, 24 h, 2 µM
[13] = human gut metagenome, 24 h, 2 µM; remark: listed apart in the source
[14] = human gut metagenome, 24 h, 2 µM; remark: listed apart in the source
[15] = human gut metagenome, 24 h, 2 µM; remark: listed apart in the source
[16] = human gut metagenome, 24 h, 2 µM; remark: listed apart in the source
[17] = human gut metagenome, 24 h, 2 µM; remark: listed apart in the source
[18] = human gut metagenome, 24 h, 2 µM; remark: listed apart in the source
[19] = human gut metagenome, 24 h, 2 µM; remark: listed apart in the source
[20] = human gut metagenome, 24 h, 2 µM; remark: listed apart in the source
Also: call rule not given here.

Row | Compound | Bacterial Biotransformation [1] | Bacterial Biotransformation [2] | Bacterial Biotransformation [3] | Bacterial Biotransformation [4] | Bacterial Biotransformation [5] | Bacterial Biotransformation [6] | Bacterial Biotransformation [7] | Bacterial Biotransformation [8] | Bacterial Biotransformation [9] | Bacterial Biotransformation [10] | Bacterial Biotransformation [11] | Bacterial Biotransformation [12] | Bacterial Biotransformation [13] | Bacterial Biotransformation [14] | Bacterial Biotransformation [15] | Bacterial Biotransformation [16] | Bacterial Biotransformation [17] | Bacterial Biotransformation [18] | Bacterial Biotransformation [19] | Bacterial Biotransformation [20]
1 | CC(O)(CS(=O)(=O)c1ccc(F)cc1)C(=O)Nc1ccc(C#N)c(C(F)(F)F)c1 (stereo not given) [BICALUTAMIDE] | Compound NOT metabolized | Compound NOT metabolized | Compound NOT metabolized | Compound NOT metabolized | Compound NOT metabolized | Compound NOT metabolized | Compound NOT metabolized | Compound NOT metabolized | Compound NOT metabolized | Compound NOT metabolized | Compound NOT metabolized | Compound NOT metabolized | Compound NOT metabolized | Compound NOT metabolized | Compound NOT metabolized | Compound NOT metabolized | Compound NOT metabolized | Compound NOT metabolized | Compound NOT metabolized | Compound NOT metabolized
2 | O=C(O)COCCN1CCN(C(c2ccccc2)c2ccc(Cl)cc2)CC1 (stereo not given) [CETIRIZINE] | Compound NOT metabolized | Compound metabolized | Compound NOT metabolized | Compound NOT metabolized | Compound NOT metabolized | Compound metabolized | Compound NOT metabolized | Compound NOT metabolized | Compound metabolized | Compound metabolized | Compound metabolized | Compound metabolized | Compound metabolized | Compound metabolized | Compound metabolized | Compound metabolized | Compound metabolized | Compound metabolized | Compound metabolized | Compound metabolized
3 | C[C@@H]1C[C@H]2[C@@H]3CCC4=CC(=O)C=C[C@]4(C)[C@@]3(F)[C@@H](O)C[C@]2(C)[C@@]1(O)C(=O)CO [DEXAMETHASONE] | Compound NOT metabolized | Compound metabolized | Compound metabolized | Compound NOT metabolized | Compound NOT metabolized | Compound metabolized | Compound NOT metabolized | Compound NOT metabolized | Compound NOT metabolized | Compound NOT metabolized | Compound NOT metabolized | Compound NOT metabolized | Compound NOT metabolized | Compound NOT metabolized | Compound NOT metabolized | Compound NOT metabolized | Compound NOT metabolized | Compound NOT metabolized | Compound NOT metabolized | Compound NOT metabolized
4 | NC(=O)N1c2ccccc2CC(=O)c2ccccc21 [OXCARBAZEPINE] | Compound NOT metabolized | Compound NOT metabolized | Compound metabolized | Compound NOT metabolized | Compound NOT metabolized | Compound NOT metabolized | Compound NOT metabolized | Compound NOT metabolized | Compound NOT metabolized | Compound NOT metabolized | – | Compound metabolized | Compound NOT metabolized | Compound NOT metabolized | Compound NOT metabolized | Compound NOT metabolized | Compound NOT metabolized | Compound NOT metabolized | Compound NOT metabolized | Compound NOT metabolized
5 | C=CCN1CC[C@]23c4c5ccc(O)c4O[C@H]2C(=O)CC[C@@]3(O)[C@H]1C5 [NALOXONE] | Compound NOT metabolized | Compound NOT metabolized | Compound NOT metabolized | Compound NOT metabolized | Compound NOT metabolized | Compound NOT metabolized | Compound NOT metabolized | Compound NOT metabolized | Compound NOT metabolized | Compound NOT metabolized | – | Compound NOT metabolized | Compound NOT metabolized | Compound NOT metabolized | Compound NOT metabolized | Compound NOT metabolized | Compound NOT metabolized | Compound NOT metabolized | Compound metabolized | Compound NOT metabolized
6 | CO[C@]12C[C@@H](COC(=O)c3cncc(Br)c3)CN(C)[C@@H]1Cc1cn(C)c3cccc2c13 [NICERGOLINE] | Compound metabolized | Compound metabolized | Compound metabolized | Compound NOT metabolized | Compound metabolized | Compound NOT metabolized | Compound NOT metabolized | Compound metabolized | Compound metabolized | – | Compound NOT metabolized | Compound NOT metabolized | Compound NOT metabolized | Compound NOT metabolized | Compound metabolized | Compound NOT metabolized | Compound NOT metabolized | Compound NOT metabolized | Compound NOT metabolized | Compound metabolized
7 | OCCN1CCN(CCCN2c3ccccc3Sc3ccc(C(F)(F)F)cc32)CC1 [FLUPHENAZINE] | Compound metabolized | Compound metabolized | Compound NOT metabolized | Compound NOT metabolized | Compound NOT metabolized | Compound metabolized | Compound NOT metabolized | Compound metabolized | Compound NOT metabolized | – | Compound NOT metabolized | Compound metabolized | Compound metabolized | Compound NOT metabolized | Compound metabolized | Compound metabolized | Compound metabolized | Compound metabolized | Compound metabolized | Compound metabolized
8 | O=c1[nH]c2ccccc2n1CCCN1CCC(n2c(=O)[nH]c3cc(Cl)ccc32)CC1 [DOMPERIDONE] | Compound NOT metabolized | Compound NOT metabolized | Compound NOT metabolized | Compound NOT metabolized | Compound NOT metabolized | Compound NOT metabolized | Compound NOT metabolized | Compound NOT metabolized | Compound NOT metabolized | Compound NOT metabolized | Compound NOT metabolized | Compound NOT metabolized | Compound NOT metabolized | Compound NOT metabolized | Compound NOT metabolized | Compound NOT metabolized | – | Compound NOT metabolized | Compound NOT metabolized | Compound NOT metabolized
